Laboratory results reported in PMC9699089 (Pathogens, 2022).
Where two headings read alike, the source gives them in different places.

Columns and labels:
[1] = system: FPf1T (DNA, G4) GGGTTTAGGGTTTAGGGTTTAGGG; test: FRET melting; settings: 10 mM KCl, 90 mM LiCl; 10 mM lithium cacodylate pH 7.2; 0.2 µM oligonucleotide, 2 µM compound
[2] = system: FPf8T (DNA, G4) GGGTTCAGGGTTCAGGGTTCAGGG; test: FRET melting; settings: 10 mM KCl, 90 mM LiCl; 10 mM lithium cacodylate pH 7.2; 0.2 µM oligonucleotide, 2 µM compound
[3] = system: FtrypBT (FEBR1T) (DNA, G4) GGGCAGGGGGTGATGGGGAGGAGCCAGGG; test: FRET melting; settings: 10 mM KCl, 90 mM LiCl; 10 mM lithium cacodylate pH 7.2; 0.2 µM oligonucleotide, 2 µM compound
[4] = system: F21T (DNA, G4) GGGTTAGGGTTAGGGTTAGGG; test: FRET melting; settings: 10 mM KCl, 90 mM LiCl; 10 mM lithium cacodylate pH 7.2; 0.2 µM oligonucleotide, 2 µM compound
[5] = system: FdxT (DNA, hairpin, hexaethyleneglycol linker between position 10 and 11) TATAGCTATATATAGCTATA; test: FRET melting; settings: 10 mM KCl, 90 mM LiCl; 10 mM lithium cacodylate pH 7.2; 0.2 µM oligonucleotide, 2 µM compound
[6] = system: Pf1 (DNA, G4) GGGTTTAGGGTTTAGGGTTTAGGG; test: native ESI-MS; settings: 1 mM KCl, 100 mM TMAA, 10 µM oligonucleotide, 20 µM ligand
[7] = system: Pf8 (DNA, G4) GGGTTCAGGGTTCAGGGTTCAGGG; test: native ESI-MS; settings: 1 mM KCl, 100 mM TMAA, 10 µM oligonucleotide, 20 µM ligand
[8] = system: 24TTG (DNA, G4) TTGGGTTAGGGTTAGGGTTAGGGA; test: native ESI-MS; settings: 1 mM KCl, 100 mM TMAA, 10 µM oligonucleotide, 20 µM ligand
[9] = system: Plasmodium falciparum CQ-resistant strain W2; test: In vitro antiplasmodial activity, SYBR Green I fluorescence-based method, strain W2; format: cell-based; settings: read-out: P. falciparum Strains IC50 Values W2
Description: (§1) The in vitro antiplasmodial activities were tested over concentrations ranging from 39 nM to 40 µM against culture-adapted Plasmodium falciparum reference strains 3D7 and W2. […] These two strains are obtained from the collection of the National Museum of Natural History (Paris, France). The parasites were cultivated in RPMI medium (Sigma Aldrich, Lyon, France) supplemented with 0.5% Albumax I (Life Technologies Corporation, Paisley, UK), hypoxanthine (Sigma Aldrich), and gentamicin (Sigma Aldrich) with human erythrocytes and were incubated at 37 °C in a candle jar, as described previously. The P. falciparum drug susceptibility test was carried out in 96-well flat bottom sterile plates in a final volume of 250 µL. After 48 h incubation period with the drugs, quantities of DNA in treated and control cultures of parasites in human erythrocytes were quantified using the SYBR Green I (Sigma Aldrich) fluorescence-based method. Briefly, after incubation, plates were frozen at -20 °C until use. Plates were then thawed for 2 h at room temperature, and 100 µL of each homogenized culture was transferred to a well of a 96-well flat bottom sterile black plate (Nunc, Inc.) that contained 100 µL of the SYBR Green I lysis buffer (2xSYBR Green, 20 mM Tris base pH 7.5, 5 mM EDTA, 0.008% w/v saponin, 0.08% w/v Triton X-100). […] Plates were incubated for 1 h at room temperature and then read on a fluorescence plate reader (Tecan, Austria) using excitation and emission wavelengths of 485 and 535 nm, respectively.

[10] = system: Plasmodium falciparum CQ-sensitive strain 3D7; test: In vitro antiplasmodial activity, SYBR Green I fluorescence-based method, strain 3D7; format: cell-based; settings: read-out: P. falciparum Strains IC50 Values 3D7
Description: as §1

[11] = system: Plasmodium telomeric sequence FPf1T G-quadruplex; test: FRET melting assay, FPf1T; format: binding, Plasmodium falciparum; settings: tested at 1 μM, oligonucleotide 0.2 μM, K+ conditions
[12] = system: Plasmodium telomeric sequence FPf8T G-quadruplex; test: FRET melting assay, FPf8T; format: binding, Plasmodium falciparum; settings: tested at 1 μM, oligonucleotide 0.2 μM, K+ conditions
[13] = system: human telomeric sequence F21T G-quadruplex; test: FRET melting assay, F21T; format: binding; settings: tested at 1 μM, oligonucleotide 0.2 μM, K+ conditions
[14] = system: L. donovani (MHOM/IN/00/DEVI) promastigotes; test: In vitro antileishmanial activity on promastigotes, MTT assay; format: cell-based; settings: Leishmania donovani, 72 h incubation, mean +/- SD of three independent experiments
Description: L. donovani (MHOM/IN/00/DEVI) used in this study was provided by the CNR Leishmania (Montpellier, France). The effects of the tested compounds on the growth of L. donovani (MHOM/IN/00/DEVI) promastigotes were assessed by MTT assay. Briefly, promastigotes in log-phase in Schneider’s medium supplemented with 20% fetal calf serum (FCS), 2 mM L-glutamine and antibiotics (100 U/mL penicillin and 100 µg/mL streptomycin), were incubated at an average density of 10^6 parasites/mL in sterile 96-well plates with various concentrations of compounds previously dissolved in DMSO (final concentration less than 0.5% v/v), in duplicate. […] Duplicate assays were performed for each sample. After the 72 h incubation period at 27 °C, parasite metabolic activity was determined. Each well was microscopically examined for precipitate formation. To each well was added 10 µL of 10 mg/mL MTT [3-(4,5-dimethylthiazol-2-yl)-2,5-diphenyltetrazolium bromide)] solution followed by 4 h incubation time. The enzyme reaction was stopped by addition of 100 µL of 50% isopropanol/10% sodium dodecyl sulfate. Plates were vigorously shaken (300 rpm) for 10 min, and the absorbance was measured at 570 nm with 630 nm as reference wavelength in a BIOTEK ELx808 Absorbance Microplate Reader (Agilent Technologies, Les Ulis, France). […] IC50 of the parasite’s growth (half maximal inhibitory concentration or IC50 values) were then calculated from the obtained experimental results using a previously described regression program. IC50 values were calculated from three independent experiments.

[15] = system: T. brucei brucei AnTat 1.9; test: In vitro antitrypanosomal activity, Alamar Blue assay; format: cell-based, Trypanosoma brucei brucei; settings: Trypanosoma brucei, slender bloodstream trypomastigotes, AnTat 1.9 strain; mean +/- SD of three independent experiments; read-out: Trypanosoma brucei brucei IC50 Values Trypanos Antat 1.9
Description: The effects of the tested compounds on the growth of T. brucei brucei were assessed using an Alamar Blue® assay described by Räz et al. T. brucei brucei AnTat 1.9 ([…], Belgium) was cultured in MEM with Earle's salts, supplemented according to the protocol of Baltz et al. […] All doses were tested in duplicate. Appropriate controls treated with solvents 0.9% NaCl or DMSO or with suramin, pentamidine, eflornithine, and fexinidazole (reference drugs purchased from Sigma Aldrich and Fluorochem, UK) were added to each set of experiments. After 69 h incubation period at 37 °C, 10 μL of the viability marker Alamar Blue (Fisher) was added to each well, and the plates were incubated for 5 h. The plates were read in a PerkinElmer ENSPIRE (Germany) microplate reader using an excitation wavelength of 530 nm and an emission wavelength of 590 nm.

[16] = Cytotoxicity evaluation, MTT assay; format: cell-based, human; settings: human
Description: These cells are a commonly used human hepatocarcinoma-derived cell line that has characteristics similar to those of primary hepatocytes. These cells express many hepatocyte-specific metabolic enzymes, thus enabling the cytotoxicity of tested product metabolites to be evaluated. […] Duplicate assays were performed for each sample. Each well was microscopically examined for precipitate formation before the medium was aspirated from the wells. After aspiration, 100 µL of MTT solution (0.5 mg/mL in medium without FCS) were then added to each well. […] The MTT solution was removed, and DMSO (100 µL) was added to dissolve the resulting blue formazan crystals. Plates were shaken vigorously (300 rpm) for 5 min. The absorbance was measured at 570 nm with 630 nm as reference wavelength in a BIO-TEK ELx808 Absorbance Microplate Reader. DMSO was used as blank and doxorubicin (Sigma Aldrich) as positive control. Cell viability was calculated as percentage of control (cells incubated without compound). The CC50 was determined from the dose-response curve using TableCurve 2D V5.0 software (Systat Software, Palo Alto, CA, USA).

[17] = system: Plasmodium telomeric sequence FPf1T G-quadruplex; test: FRET melting assay, FPf1T; format: binding, Plasmodium falciparum; settings: compound 2 μM, oligonucleotide 0.2 μM, K+ conditions
Description: (§2) These were performed with dual-labeled oligonucleotides mimicking the Plasmodium telomeric sequences FPf1T [FAM-5′(GGGTTTA)3-GGG3′-TAMRA] and FPf8T [FAM-5′(GGGTTCA)3GGG3′-TAMRA], the Trypanosoma 9 and 11 chromosomic sequence FTrypBT (also named FEBR1T) [FAM-5′[…]3′-TAMRA], the human telomeric sequence F21T [FAM-(GGGTTA)3-GGG3′-TAMRA] and the human duplex sequence FdxT [FAM5′-[…]-hexaethyleneglycol-[…]3′-TAMRA] [27, 31, 47]. The oligonucleotides were pre-folded in 10 mM lithium cacodylate buffer (pH 7.2), with 10 mM KCl and 90 mM LiCl (K^+ condition). The FAM emissions were recorded at 516 nm using a 492-nm excitation wavelength in the absence and presence of a single compound as a function of temperature (25 to 95 °C) in 96-well microplates using a Stratagene MX3000P real-time PCR device at a rate of 1 °C∙min-1. Data were normalized between 0 and 1, and the required temperature for half-denaturation of oligonucleotides corresponding to the emission value of 0.5 was taken as the Tm. Each experiment was performed in duplicate with 0.2 µM of labeled oligonucleotide and 2 µM of compound under K^+ condition. For each compound, three independent experiments were carried out.

[18] = system: Plasmodium telomeric sequence FPf8T G-quadruplex; test: FRET melting assay, FPf8T; format: binding, Plasmodium falciparum; settings: compound 2 μM, oligonucleotide 0.2 μM, K+ conditions
Description: as §2

[19] = system: Trypanosoma 9 and 11 chromosomic sequence FTrypBT (FEBR1T) G-quadruplex; test: FRET melting assay, FtrypBT; format: binding, Trypanosoma brucei brucei; settings: compound 2 μM, oligonucleotide 0.2 μM, K+ conditions
Description: as §2

[20] = system: human telomeric sequence F21T G-quadruplex; test: FRET melting assay, F21T; format: binding; settings: compound 2 μM, oligonucleotide 0.2 μM, K+ conditions
Description: as §2

[21] = system: human duplex sequence FdxT; test: FRET melting assay, duplex control FdxT; format: binding; settings: compound 2 μM, oligonucleotide 0.2 μM, K+ conditions
Description: as §2

[22] = CQ-resistant strain W2, 48 h incubation, mean of three independent experiments
[23] = CQ-sensitive strain 3D7, 48 h incubation, mean of three independent experiments

CN(C)CCCCCNCc1cc(-c2ccccc2)c2ccc3c(-c4ccccc4)cc(CNCCCCCN(C)C)nc3c2n1
ΔTm [1]: 18.8 ± 0.2 °C
ΔTm [2]: 20.5 ± 0.2 °C
ΔTm [3]: 14.7 ± 0.7 °C
ΔTm [4]: 18.1 ± 0.9 °C
ΔTm [5]: 1.8 ± 0.2 °C
Kd1 ([6]; site 1 of 2 (Kd2 24 µM)): 8 µM
Kd1 ([7]; site 1 of 2 (Kd2 16 µM)): 3 µM
Kd1 ([8]; site 1 of 2 (Kd2 62 µM)): 38 µM

CN(C)CCCCNCc1cc(-c2ccccc2)c2ccc3c(-c4ccccc4)cc(CNCCCCN(C)C)nc3c2n1
Kd1 ([7]; site 1 of 2 (Kd2 50 µM)): 3 µM
Kd1 ([8]; site 1 of 2 (Kd2 28 µM)): 44 µM

c1ccc(-c2cc(CNCCCN3CCCC3)nc3c2ccc2c(-c4ccccc4)cc(CNCCCN4CCCC4)nc23)cc1
ΔTm [5]: 0.7 ± 0.2 °C
Kd1 ([6]; site 1 of 2 (Kd2 37 µM)): 10 µM
Kd1 ([7]; site 1 of 2 (Kd2 59 µM)): 2 µM
Kd1 ([8]; site 1 of 2 (Kd2 18 µM)): 34 µM

CCN(CC)CCCC(C)Nc1ccnc2cc(Cl)ccc12 (centres unmarked) [CQ, chloroquine]
IC50 ([9]; W2, 48 h): 400 ± 40 nM
IC50 ([10]; 3D7, 48 h): 110 ± 10 nM
ΔTm FPf1T [11]: 1.9 °C
ΔTm FPf8T [12]: 2.4 °C
ΔTm F21T [13]: 2.4 °C

c1ccc(-c2cc(CNCCc3ccncc3)nc3c2ccc2c(-c4ccccc4)cc(CNCCc4ccncc4)nc23)cc1 [Compound 1o]
IC50 [9, 22]: 1870 ± 580 nM
IC50 [10, 23]: 730 ± 190 nM
IC50 [14]: 2690 ± 600 nM
IC50 [15]: 210 ± 10 nM
CC50 at 72 h [16]: 19100 ± 2110 nM
ΔTm FPf1T [17]: 2.9 °C
ΔTm FPf8T [18]: 5.2 °C
ΔTm FtrypBT [19]: 5.3 °C
ΔTm F21T [20]: 3.9 °C
ΔTm FdxT [21]: −0.3 °C

c1ccc(-c2cc(CNCCCc3ccncc3)nc3c2ccc2c(-c4ccccc4)cc(CNCCCc4ccncc4)nc23)cc1 [Compound 1p]
IC50 [9, 22]: 145 ± 40 nM
IC50 [10, 23]: 1020 ± 350 nM
IC50 [14]: > 12500 nM
IC50 [15]: 650 ± 50 nM
CC50 at 72 h [16]: 3040 ± 190 nM
ΔTm FPf1T [17]: 3.5 °C
ΔTm FPf8T [18]: 3.9 °C
ΔTm FtrypBT [19]: 3.7 °C
ΔTm F21T [20]: 3.6 °C
ΔTm FdxT [21]: −1.1 °C

OC(c1cc(C(F)(F)F)nc2c(C(F)(F)F)cccc12)C1CCCCN1 (centres unmarked) [MQ, mefloquine]
IC50 [9, 22]: 16 ± 2 nM
IC50 [10, 23]: 60 ± 3 nM
ΔTm FPf1T [11]: 3.1 °C
ΔTm FPf8T [12]: 6.6 °C
ΔTm F21T [13]: 2.6 °C
